pEC50, pIC50: −log10 of the molar value.
Key:
[1] = system: human Cav3.1 Cav3.2 or Cav3.3 channel; assay: In vitro assay T channel (FLIPR, Ca2+-induced fluorescence); type: cell-based; settings: HEK293 cells expressing human Cav3.1 Cav3.2 or Cav3.3; 10 mM Ca2+; determined up to 10 μM; read-out: T channel antagonistic activity IC50
Procedure: Human embryonic kidney (HEK293) cells expressing the human Cav3.1 Cav3.2 or Cav3.3 channel, respectively, are grown in culture medium (DMEM containing 10% heat-inactivated fetal calf serum (FCS), 100 U/ml penicillin, 100 μg/ml streptomycin and 1 mg/ml G418). The cells are seeded at 20.000 cells/well into 384-well black clear bottom sterile plates (poly-L-lysine-coated, Becton Dickinson). The seeded plates are incubated overnight at 37° C. in 5% CO2. The Ca^2+ solution is prepared as 100 mM stock solution in 100 mM tetraethylammoniumchloride (TEA-chloride), 50 mM HEPES, 2.5 mM CaCl2, 5 mM KCl, 1 mM MgCl2, adjusted to pH 7.2 with TEA-hydroxide, for use in the assay at a final concentration of 10 mM. […] Fluorescence is measured for each well at 2 second intervals for 8 minutes, and the area under the curve of each fluorescence peak is compared to the area of the fluorescence peak induced by 10 mM Ca^2+ with vehicle in place of antagonist.

[2] = system: isolated mouse hearts; assay: Effect on isolated hearts according to the Langendorff method (Lgdff)
Procedure: The compounds were tested for their potential to reduce blood pressure and their effect on the contractility of the heart muscle. EC50 values on isolated mouse hearts were determined according to Literature (Doring H J., The isolated perfused heart according to Langendorff technique—function—application, Physiol. Bohemoslov. 1990, 39(6), 481-504; Kligfield P, Homer H, Brachfeld N., A model of graded ischemia in the isolated perfused rat heart, J. Appl. Physiol. 1976 June, 40(6), 1004-8).
15 example compounds have been measured using the procedure described above for the Langendorff experiment.

Row | SMILES | pIC50 [1] | pEC50 [2]
1 | CC(C)C(=O)O[C@@]1(CCN(C)CCCc2nc3ccccc3[nH]2)C[C@H]2CC[C@@H]1c1cc(F)c(F)cc12 (relative stereo) [Example 9A, rac-Isobutyric acid (1R*,8R*,9R*)-9-(2-{[3-(1H-benzoimidazol-2-yl)-propyl]-methyl-amino}-ethyl)-4,5-difluoro-tricyclo[6.2.2.0^2,7]dodeca-2,4,6-trien-9-yl ester] | 5.85 | 7.52
2 | CC(C)C(=O)O[C@@]1(CCN(C)CCCc2nc3ccccc3[nH]2)C[C@H]2CC[C@@H]1c1ccccc12 (relative stereo) [Example 1B, rac-Isobutyric acid (1R*,8R*,9R*)-9-(2-{[3-(1H-benzoimidazol-2-yl)-propyl]-methyl-amino}-ethyl)-tricyclo[6.2.2.0^2,7]dodeca-2,4,6-trien-9-yl ester] | 5.68 | 7.38
3 | CN(CCCc1nc2ccccc2[nH]1)CCC1(O)CC2CCC1c1ccccc12 (single isomer, unassigned) [Example 3, (1S,8S,9S)-9-(2-{[3-(1H-Benzoimidazol-2-yl)-propyl]-methyl-amino}-ethyl)-tricyclo[6.2.2.0^2,7]dodeca-2,4,6-trien-9-ol or (1R,8R,9R)-9-(2-{[3-(1H-benzoimidazol-2-yl)-propyl]-methyl-amino}-ethyl)-tricyclo[6.2.2.0^2,7]dodeca-2,4,6-trien-9-ol] | 5.65 | –
4 | CC(C)C(=O)O[C@@]1(CCN2CCC(c3ccccc3)(c3nc4ccccc4[nH]3)CC2)C[C@H]2CC[C@@H]1c1ccccc12 (relative stereo) [Example 8A, rac-Isobutyric acid (1R*,8R*,9R*)-9-{2-[4-(1H-benzoimidazol-2-yl)-4-phenyl-piperidin-1-yl]-ethyl}-tricyclo[6.2.2.0^2,7]dodeca-2,4,6-trien-9-yl ester] | 5.21 | –
5 | CC(C)C(=O)O[C@@]1(CCN(C)CCCc2nc3ccccc3[nH]2)C[C@H]2CCC[C@@H]1c1ccccc12 (relative stereo) [Example 10B, rac-Isobutyric acid (1R*,8R*,12R*)-12-(2-{[3-(1H-benzoimidazol-2-yl)-propyl]-methyl-amino}-ethyl)-tricyclo[6.3.2.0^2,7]trideca-2,4,6-trien-12-yl ester] | 5.88 | –
6 | O[C@@]1(CCN2CCCC(c3nc4ccccc4[nH]3)C2)C[C@H]2CC[C@@H]1c1ccccc12 (relative stereo) [Example 7, (1R*,8R*,9R*)-9-{2-[(3RS)-3-(1H-Benzoimidazol-2-yl)-piperidin-1-yl]-ethyl}-tricyclo[6.2.2.0^2,7]dodeca-2,4,6-trien-9-ol] | 5.65 | –

More lines, in order of rising pIC50 [1], values ahead:

Row | pIC50 [1] | pEC50 [2] | SMILES
7 | 5.98 | 7.66 | CC(C)C(=O)OC1(CCN(C)CCCc2nc3ccccc3[nH]2)CC2CCCC1c1ccccc12 [Example 11A, Isobutyric acid (1S,8S,12S)-12-(2-{[3-(1H-Benzoimidazol-2-yl)-propyl]-methyl-amino}-ethyl)-tricyclo[6.3.2.0^2,7]trideca-2,4,6-trien-12-yl ester or isobutyric acid (1R,8R,12R)-12-(2-{[3-(1H-benzoimidazol-2-yl)-propyl]-methyl-amino}-ethyl)-tricyclo[6.3.2.0^2,7]trideca-2,4,6-trien-12-yl ester]
8 | 6.01 | – | CN(CCCc1nc2ccccc2[nH]1)CC[C@]1(OC(=O)C2CC2)C[C@H]2CC[C@@H]1c1ccccc12 (relative stereo) [Example 1C, rac-Cyclopropanecarboxylic acid (1R*,8R*,9R*)-9-(2-{[3-(1H-benzoimidazol-2-yl)-propyl]-methyl-amino}-ethyl)-tricyclo[6.2.2.0^2,7]dodeca-2,4,6-trien-9-yl ester]
9 | 6.09 | – | COCC(=O)O[C@@]1(CCN(C)CCCc2nc3ccccc3[nH]2)C[C@H]2CCC[C@@H]1c1ccccc12 (relative stereo) [Example 10A, rac-Methoxy-acetic acid (1R*,8R*,12R*)-12-(2-{[3-(1H-benzoimidazol-2-yl)-propyl]-methyl-amino}-ethyl)-tricyclo[6.3.2.0^2,7]trideca-2,4,6-trien-12-yl ester]
10 | 6.19 | 8.22 | COc1cccc2[nH]c(CCCN(C)CC[C@@]3(OC(=O)CC(F)(F)F)C[C@@H]4CCC[C@H]3c3ccccc34)nc12 [Example 13B, 3,3,3-Trifluoro-propionic acid (1S,8S,12S)-12-(2-{[3-(4-methoxy-1H-benzoimidazol-2-yl)-propyl]-methyl-amino}-ethyl)-tricyclo[6.3.2.02,7]trideca-2,4,6-trien-12-yl ester or 3,3,3-trifluoro-propionic acid (1R,8R,12R)-12-(2-{[3-(4-methoxy-1H-benzoimidazol-2-yl)-propyl]-methyl-amino}-ethyl)-tricyclo[6.3.2.02,7]trideca-2,4,6-trien-12-yl ester]
11 | 6.28 | – | CN(CCCc1nc2ccccc2[nH]1)CCC1(O)CC2CCCC1c1ccccc12 (single isomer, unassigned) [Example 11, (1S,8S,12S)-12-(2-{[3-(1H-Benzoimidazol-2-yl)-propyl]-methyl-amino}-ethyl)-tricyclo[6.3.2.0^2,7]trideca-2,4,6-trien-12-ol or (1R,8R,12R)-12-(2-{[3-(1H-benzoimidazol-2-yl)-propyl]-methyl-amino}-ethyl)-tricyclo[6.3.2.0^2,7]trideca-2,4,6-trien-12-ol]

From US8314253B2, “Bridged tetrahydronaphthalene derivatives” (Actelion Pharmaceuticals Ltd., priority 2008, dated 2012)
